# Assay: recombinant UMI read abundance after kanamycin selection (control-corrected) (log10(CPM+1)); higher = more efficient recombination; extreme values may be limits of the assay; sequences stand for … in AGTGCAGAGAAAATCGGCCAGTTTTCTCTGCCTGCAGTCCGCATGCCGTGGGACCCCTTGGGTTCTAACCTGTTGCCTAGATTTATGCAGCGGACTGCCTTTCTCCCAAAGTGATAAACCGG…AGGTTGGTTTCACT; site = the 11-nt donor
# Summary of the method: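 Counts of recombinant UMIs were reported as log10(CPM+1). Before that, they were converted to CPM, averaged over replicates and scaled using control-derived factors. They came from PCR across the donor–target junction after Escherichia coli carrying the pair library and target plasmid was plated on IPTG (0.07 mM) plus kanamycin, or unselected, in two replicates each.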
# 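Note: IS621 bridge recombinase in Escherichia coli cells against a fixed T5 target plasmid.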
row,Sequence,recombinant UMI read abundance (log10)
1,CTGGGAACATGGACCGGTTTTCCCGGTAATCCGTATTTGCA (site CTGGCAACTTG),0.789
2,CTGGGAACATGGACCGGTTTTCCCGGTAATCCGTATTTGCA (site CTGGGAACTTG),2.39
3,CTGGGAACATGGACCGGTTTTCCCGGTAATCCGTATTTGCA (site CTGGTAACTTG),0.262
4,CTGGGCGCATGGACCGGTTTTCCCGGTAATCCGTATTTGCA (site AATACGCCTAT),0.0174
5,CTGGTATCATGGACCGGTTTTCCCGGTAATCCGTATTTGCC (site CTAGTATCTGT),0
6,CTGGTATCATGGACCGGTTTTCCCGGTAATCCGTATTTGCC (site CTGGTATCTGG),0
7,CTGGTTACATGGACCGGTTTTCCCGGTAATCCGTATTTGGC (site CTGGTTACTGC),1.74
8,CTGTACGCATGGACCGGTTTTCCCGGTAATCCGTATTTGGT (site CTGTACGCTAC),1.26
9,CTGTAGCCATGGACCGGTTTTCCCGGTAATCCGTATTTGAT (site CTGTAGCCTAT),0.748
10,CTGTAGGCATGGACCGGTTTTCCCGGTAATCCGTATTTGGC (site ATGTAGGCTGC),0.626
11,CTGTAGGCATGGACCGGTTTTCCCGGTAATCCGTATTTGGC (site CTGTAGGCTGC),2.01
12,CTGTAGGCATGGACCGGTTTTCCCGGTAATCCGTATTTGGC (site GTGTAGGCTGC),0
13,CTGTAGGCATGGACCGGTTTTCCCGGTAATCCGTATTTGGC (site TTGTAGGCTGC),0
14,CTGTAGGCATGGACCGGTTTTCCCGGTAATCCGTATTTGGG (site CTGTAGGCTCC),0.27
15,CTGTAGTCATGGACCGGTTTTCCCGGTAATCCGTATTTGTC (site CTGTAGTCTGA),3.24
16,CTGTCGCCATGGACCGGTTTTCCCGGTAATCCGTATTTGCG (site CTGTCGCCTCG),0.00856
17,CTGTGCGCATGGACCGGTTTTCCCGGTAATCCGTATTTGAC (site TCCCTGTCTTC),0.0087
18,CTGTTACCATGGACCGGTTTTCCCGGTAATCCGTATTTGCT (site CTGATACCTAG),0
19,CTGTTACCATGGACCGGTTTTCCCGGTAATCCGTATTTGCT (site CTGCTACCTAG),0.146
20,CTGTTACCATGGACCGGTTTTCCCGGTAATCCGTATTTGCT (site CTGGTACCTAG),0
21,CTGTTACCATGGACCGGTTTTCCCGGTAATCCGTATTTGCT (site CTGTTACCTAG),0
22,CTGTTTACATGGACCGGTTTTCCCGGTAATCCGTATTTGCT (site CAGTTTACTAG),0.405
23,CTGTTTACATGGACCGGTTTTCCCGGTAATCCGTATTTGCT (site CCGTTTACTAG),1.15

row,Sequence,recombinant UMI read abundance (log10)
1,CTGTTTACATGGACCGGTTTTCCCGGTAATCCGTATTTGCT (site CGGTTTACTAG),0
2,CTGTTTACATGGACCGGTTTTCCCGGTAATCCGTATTTGCT (site CTGTTTACTAG),2.02
3,CTTAGCTCATGGACCGGTTTTCCCGGTAATCCGTATTTGCT (site CTTAGCTCTAG),0
4,CTTCAGCCATGGACCGGTTTTCCCGGTAATCCGTATTTGGA (site CTTCAGCCTTC),0
5,CTTCCCTCATGGACCGGTTTTCCCGGTAATCCGTATTTGTA (site CTTCACTCTTA),0.00365
6,CTTCCCTCATGGACCGGTTTTCCCGGTAATCCGTATTTGTA (site CTTCCCTCTTA),2.49
7,CTTCCCTCATGGACCGGTTTTCCCGGTAATCCGTATTTGTA (site CTTCGCTCTTA),0.00376
8,CTTCCCTCATGGACCGGTTTTCCCGGTAATCCGTATTTGTA (site CTTCTCTCTTA),0.434
9,CTTCTAACATGGACCGGTTTTCCCGGTAATCCGTATTTGCG (site CTTCTAACTCG),0.213
10,CTTCTCGCATGGACCGGTTTTCCCGGTAATCCGTATTTGTA (site CTTCTCACTTA),0.459
11,CTTCTCGCATGGACCGGTTTTCCCGGTAATCCGTATTTGTA (site CTTCTCCCTTA),0.0264
12,CTTCTCGCATGGACCGGTTTTCCCGGTAATCCGTATTTGTA (site CTTCTCGCTTA),1.29
13,CTTCTCGCATGGACCGGTTTTCCCGGTAATCCGTATTTGTA (site CTTCTCTCTTA),0.0056
14,CTTCTCTCATGGACCGGTTTTCCCGGTAATCCGTATTTGGA (site CTTCTCTCTTA),0.0983
15,CTTCTCTCATGGACCGGTTTTCCCGGTAATCCGTATTTGGA (site CTTCTCTCTTC),1.35
16,CTTCTCTCATGGACCGGTTTTCCCGGTAATCCGTATTTGGA (site CTTCTCTCTTG),0
17,CTTCTCTCATGGACCGGTTTTCCCGGTAATCCGTATTTGGA (site CTTCTCTCTTT),0.925
18,CTTCTCTCATGGACCGGTTTTCCCGGTAATCCGTATTTGTC (site CTTCTCTCTAA),1.6
19,CTTCTCTCATGGACCGGTTTTCCCGGTAATCCGTATTTGTC (site CTTCTCTCTCA),0.0104
20,CTTCTCTCATGGACCGGTTTTCCCGGTAATCCGTATTTGTC (site CTTCTCTCTGA),2.45
21,CTTCTCTCATGGACCGGTTTTCCCGGTAATCCGTATTTGTC (site CTTCTCTCTTA),0.836
22,CTTGAAACATGGACCGGTTTTCCCGGTAATCCGTATTTGCA (site CTAGAAACTTG),1.31
23,CTTGAAACATGGACCGGTTTTCCCGGTAATCCGTATTTGCA (site CTCGAAACTTG),0.00453

row,Sequence,recombinant UMI read abundance (log10)
1,CTTGAAACATGGACCGGTTTTCCCGGTAATCCGTATTTGCA (site CTGGAAACTTG),0.538
2,CTTGAAACATGGACCGGTTTTCCCGGTAATCCGTATTTGCA (site CTTGAAACTTG),2.07
3,CTTGACGCATGGACCGGTTTTCCCGGTAATCCGTATTTGGT (site CTTGACGCTAC),0.601
4,CTTGAGTCATGGACCGGTTTTCCCGGTAATCCGTATTTGAT (site CTTGAGTCTAT),2.13
5,CTTGAGTCATGGACCGGTTTTCCCGGTAATCCGTATTTGTT (site CTTGAGTCTAA),2.46
6,CTTGTAACATGGACCGGTTTTCCCGGTAATCCGTATTTGGC (site CTTGTAACTGC),0
7,CTTGTAGCATGGACCGGTTTTCCCGGTAATCCGTATTTGTC (site CTTGTAGCTGA),0.797
8,CTTGTCTCATGGACCGGTTTTCCCGGTAATCCGTATTTGTA (site CTTATCTCTTA),1.78
9,CTTGTCTCATGGACCGGTTTTCCCGGTAATCCGTATTTGTA (site CTTCTCTCTTA),0.856
10,CTTGTCTCATGGACCGGTTTTCCCGGTAATCCGTATTTGTA (site CTTGTCTCTTA),2.82
11,CTTGTCTCATGGACCGGTTTTCCCGGTAATCCGTATTTGTA (site CTTTTCTCTTA),0
12,CTTGTGTCATGGACCGGTTTTCCCGGTAATCCGTATTTGTG (site CTTGTGTCTCA),2.16
13,CTTGTTCCATGGACCGGTTTTCCCGGTAATCCGTATTTGGT (site ATTGTTCCTAC),0.0155
14,CTTGTTCCATGGACCGGTTTTCCCGGTAATCCGTATTTGGT (site CTTGTTCCTAC),0.00959
15,CTTGTTCCATGGACCGGTTTTCCCGGTAATCCGTATTTGGT (site GTTGTTCCTAC),0.0201
16,CTTGTTCCATGGACCGGTTTTCCCGGTAATCCGTATTTGGT (site TTTGTTCCTAC),0.0168
17,CTTTACGCATGGACCGGTTTTCCCGGTAATCCGTATTTGTA (site CTTTACGCTTA),0.0146
18,CTTTAGACATGGACCGGTTTTCCCGGTAATCCGTATTTGAG (site CATTAGACTCT),0.351
19,CTTTAGACATGGACCGGTTTTCCCGGTAATCCGTATTTGAG (site CCTTAGACTCT),0
20,CTTTAGACATGGACCGGTTTTCCCGGTAATCCGTATTTGAG (site CGTTAGACTCT),0.118
21,CTTTAGACATGGACCGGTTTTCCCGGTAATCCGTATTTGAG (site CTTTAGACTCT),1.31
22,CTTTATACATGGACCGGTTTTCCCGGTAATCCGTATTTGTT (site CTTTATACTAA),0.121
